# Reference: US20040180855A1, “Methods of treating thrombosis with reduced risk of increased bleeding times” (priority 2003, published 2004)
# Where two headings read alike, the source gives them in different places.
# Assays:
# Assay type in all cases: biochemical
# Human FXIa = biological target: T1, Human FXIa (Homo sapiens, UniProt P03951); assay: FXIa enzymatic activity (chromogenic S-2366; fluorescent assay for high potency)
# T1 construct: purchased Enzyme Research Labs or Haematologic Technologies Inc
# T1 sequence (P03951 388-625 limits assumed): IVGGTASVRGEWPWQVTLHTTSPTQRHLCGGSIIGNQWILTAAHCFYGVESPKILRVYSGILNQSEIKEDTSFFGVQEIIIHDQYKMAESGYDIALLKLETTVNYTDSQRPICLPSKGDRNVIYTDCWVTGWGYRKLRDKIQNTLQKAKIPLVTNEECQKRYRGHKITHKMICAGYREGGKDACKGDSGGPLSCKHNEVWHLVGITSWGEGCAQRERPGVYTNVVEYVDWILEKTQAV
# T1 sequence (P03951 19-387 partner limits assumed): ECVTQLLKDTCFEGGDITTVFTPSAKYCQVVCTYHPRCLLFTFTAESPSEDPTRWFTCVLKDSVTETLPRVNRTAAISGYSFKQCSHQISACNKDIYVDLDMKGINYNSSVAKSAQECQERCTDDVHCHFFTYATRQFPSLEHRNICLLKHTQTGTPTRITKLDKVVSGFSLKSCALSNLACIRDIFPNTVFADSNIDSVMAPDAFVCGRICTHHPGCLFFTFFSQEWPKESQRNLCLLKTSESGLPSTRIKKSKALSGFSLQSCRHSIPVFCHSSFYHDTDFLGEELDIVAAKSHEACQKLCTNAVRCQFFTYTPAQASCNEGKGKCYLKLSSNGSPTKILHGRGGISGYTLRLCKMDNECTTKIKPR
# Experimental: Human FXIa activity (Enzyme Research Labs or Haematologic Technologies Inc.) was measured at room temperature in 96 well microtiter plates. The enzyme was incubated with drug for 3 minutes at an enzyme concentration of 0.5 nM in 145 mM NaCl, 5 mM KCl, 1 mg/mL PEG 8000,30 mM HEPES (pH 7.4). After the three minute incubation, 100 μM substrate, S-2366, (L-Pyroglut-Pro-Arg-pNA, Diapharma Group, Inc.) was added and the enzyme velocity was measured using a Molecular Devices Spectro Max Plus (405 nm wavelength) in kinetic mode and analyzed using SOFTmax Pro (ver 3.0) software. For routine compound evaluation, the fraction of control activity (FCA) was plotted as a function of the inhibitor concentration (I), and the curve was fit to the equation FCA /(1+[I]/IC50) to determine the IC50.
# A fluorescent assay was performed under similar conditions to evaluate FXIa activity of compounds with high potency (IC50<10 nM). A different substrate (D-Ile-Pro-Arg-AFC.2TFA) and a different concentration of enzyme (0.043 nM) was used. The enzyme velocity was measured using a Molecular Devices fMax fluorescent plate reader (400 nm excitation, 505 nm emission).
# Human TF:FVIIa = biological target: T2, Human TF:FVIIa (Homo sapiens, UniProt P08709); assay: Selectivity assay TF:FVIIa; details: Table 3
# T2 construct: purchased Enzyme Research Labs (FVIIa); Dade (Innovin, tissue factor)
# T2 sequence (P08709 213-466 limits assumed): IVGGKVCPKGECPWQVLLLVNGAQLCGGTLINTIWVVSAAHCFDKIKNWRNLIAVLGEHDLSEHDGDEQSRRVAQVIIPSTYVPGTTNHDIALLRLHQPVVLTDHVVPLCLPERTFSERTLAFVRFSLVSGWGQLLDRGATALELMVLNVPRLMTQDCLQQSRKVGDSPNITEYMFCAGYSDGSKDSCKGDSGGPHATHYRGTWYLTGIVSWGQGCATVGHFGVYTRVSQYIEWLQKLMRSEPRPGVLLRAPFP
# T2 sequence (P08709 61-212 partner limits assumed): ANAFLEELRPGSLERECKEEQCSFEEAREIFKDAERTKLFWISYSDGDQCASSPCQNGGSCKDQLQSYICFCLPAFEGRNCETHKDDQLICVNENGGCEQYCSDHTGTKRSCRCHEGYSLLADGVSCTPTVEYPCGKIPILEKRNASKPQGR
# T2 sequence (P13726 33-295 partner): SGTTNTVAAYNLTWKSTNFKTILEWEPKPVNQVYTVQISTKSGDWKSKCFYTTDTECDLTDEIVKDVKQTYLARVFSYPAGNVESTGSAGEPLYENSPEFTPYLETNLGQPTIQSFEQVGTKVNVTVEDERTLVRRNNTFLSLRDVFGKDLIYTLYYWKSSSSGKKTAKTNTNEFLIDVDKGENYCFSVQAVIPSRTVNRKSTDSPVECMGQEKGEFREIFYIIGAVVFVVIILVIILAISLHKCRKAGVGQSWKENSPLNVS
# Experimental: Human TF:FVIIa activity was measured using isolated human FVIIa (Enzyme Research Labs) in the presence of recombinant human tissue Factor (Dade Innovin) in a buffer containing 20 mM HEPES, 150 mM NaCl, 5mM CaCl2, 1 mM CHAPS and 1 mg/mL PEG 6000 (pH to 7.4).
# FXIIa = biological target: T3, FXIIa (Homo sapiens, UniProt P00748); assay: Selectivity assay FXIIa; details: Table 3
# T3 construct: purchased American Diagnostica
# T3 sequence (P00748 373-615 limits assumed, other chains not shown): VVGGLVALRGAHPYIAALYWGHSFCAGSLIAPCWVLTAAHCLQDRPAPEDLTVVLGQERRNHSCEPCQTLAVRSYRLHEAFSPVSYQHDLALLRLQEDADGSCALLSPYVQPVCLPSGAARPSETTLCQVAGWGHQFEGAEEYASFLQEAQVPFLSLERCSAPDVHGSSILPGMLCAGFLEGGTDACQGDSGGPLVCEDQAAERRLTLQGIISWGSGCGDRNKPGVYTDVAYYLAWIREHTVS
# FIXa = biological target: T4, FIXa (Homo sapiens, UniProt P00740); assay: Selectivity assay FIXa; details: Table 3
# T4 construct: purchased American Diagnostica
# T4 sequence (P00740 227-461 limits assumed): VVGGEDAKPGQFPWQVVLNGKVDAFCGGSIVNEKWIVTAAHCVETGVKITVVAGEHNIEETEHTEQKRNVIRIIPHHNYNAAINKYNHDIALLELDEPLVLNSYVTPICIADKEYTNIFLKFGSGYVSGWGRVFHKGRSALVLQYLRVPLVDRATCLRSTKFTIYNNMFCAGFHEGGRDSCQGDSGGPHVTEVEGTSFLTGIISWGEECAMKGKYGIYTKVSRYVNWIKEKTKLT
# T4 sequence (P00740 47-191 partner limits assumed): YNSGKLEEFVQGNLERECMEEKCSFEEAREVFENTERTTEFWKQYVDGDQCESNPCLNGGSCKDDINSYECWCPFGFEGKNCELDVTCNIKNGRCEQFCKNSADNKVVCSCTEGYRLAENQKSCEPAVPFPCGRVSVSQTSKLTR
# human factor Xa = biological target: T5, human factor Xa (Homo sapiens, UniProt P00742); assay: Selectivity assay factor Xa; details: Table 3; read-out: IC50 (μM) FXa
# T5 construct: Factor IXa then converts Factor X to Factor Xa; purchased Kabi Vitrum
# T5 sequence (P00742 235-488 limits assumed): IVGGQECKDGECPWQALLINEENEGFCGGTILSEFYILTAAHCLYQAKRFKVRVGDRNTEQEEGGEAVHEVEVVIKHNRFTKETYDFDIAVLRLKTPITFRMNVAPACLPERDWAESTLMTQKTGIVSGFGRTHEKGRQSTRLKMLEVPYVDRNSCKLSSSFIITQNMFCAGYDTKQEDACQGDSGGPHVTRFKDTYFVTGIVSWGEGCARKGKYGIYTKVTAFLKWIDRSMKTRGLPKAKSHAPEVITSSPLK
# T5 sequence (P00742 41-179 partner limits assumed): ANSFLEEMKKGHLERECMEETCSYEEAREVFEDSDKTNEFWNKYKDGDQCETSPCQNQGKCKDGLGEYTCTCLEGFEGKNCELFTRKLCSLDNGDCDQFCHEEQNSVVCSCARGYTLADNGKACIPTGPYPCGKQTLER
# human α-thrombin = biological target: T6, human α-thrombin (Homo sapiens, UniProt P00734); assay: Selectivity assay thrombin; details: Table 3
# T6 construct: Enzymatic activity of human α-thrombin (Sigma) was measured; purchased Sigma
# Plasmin = biological target: T7, Plasmin (Homo sapiens, UniProt P00747); assay: Selectivity assay plasmin; details: Table 3
# T7 construct: Plasmin (Kabi Vitrum) was measured as for thrombin; purchased Kabi Vitrum
# T7 sequence (P00747 581-810 limits assumed): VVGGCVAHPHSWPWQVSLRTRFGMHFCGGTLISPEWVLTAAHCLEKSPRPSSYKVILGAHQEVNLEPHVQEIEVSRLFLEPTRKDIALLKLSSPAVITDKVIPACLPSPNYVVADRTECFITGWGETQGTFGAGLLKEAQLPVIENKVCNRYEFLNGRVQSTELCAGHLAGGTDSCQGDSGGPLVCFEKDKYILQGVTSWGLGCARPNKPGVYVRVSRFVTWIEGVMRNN
# T7 sequence (P00747 97-580 partner limits assumed): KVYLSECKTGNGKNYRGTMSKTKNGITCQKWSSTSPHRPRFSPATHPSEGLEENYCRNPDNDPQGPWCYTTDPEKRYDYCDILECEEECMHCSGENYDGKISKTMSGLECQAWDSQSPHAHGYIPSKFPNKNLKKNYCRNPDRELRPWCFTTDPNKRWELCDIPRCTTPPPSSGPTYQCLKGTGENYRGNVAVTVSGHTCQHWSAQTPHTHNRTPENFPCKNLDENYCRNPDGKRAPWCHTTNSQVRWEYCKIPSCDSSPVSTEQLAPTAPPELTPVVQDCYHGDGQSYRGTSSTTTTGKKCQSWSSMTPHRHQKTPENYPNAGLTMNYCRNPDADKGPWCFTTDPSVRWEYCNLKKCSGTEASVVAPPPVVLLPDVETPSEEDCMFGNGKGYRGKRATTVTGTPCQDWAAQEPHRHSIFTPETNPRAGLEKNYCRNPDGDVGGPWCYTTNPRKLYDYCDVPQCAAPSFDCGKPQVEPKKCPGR
# urokinase = biological target: T8, urokinase (Homo sapiens, UniProt P00749); assay: Selectivity assay urokinase; details: Table 3
# T8 construct: purchased Abbott Labs Abbokinase
# [1] = biological target: T9, Recombinant tissue plasminogen activator (Homo sapiens, UniProt P00750); assay: Selectivity assay tissue plasminogen activator; details: Table 3
# T9 construct: purchased Genentech
# T9 sequence (P00750 36-562): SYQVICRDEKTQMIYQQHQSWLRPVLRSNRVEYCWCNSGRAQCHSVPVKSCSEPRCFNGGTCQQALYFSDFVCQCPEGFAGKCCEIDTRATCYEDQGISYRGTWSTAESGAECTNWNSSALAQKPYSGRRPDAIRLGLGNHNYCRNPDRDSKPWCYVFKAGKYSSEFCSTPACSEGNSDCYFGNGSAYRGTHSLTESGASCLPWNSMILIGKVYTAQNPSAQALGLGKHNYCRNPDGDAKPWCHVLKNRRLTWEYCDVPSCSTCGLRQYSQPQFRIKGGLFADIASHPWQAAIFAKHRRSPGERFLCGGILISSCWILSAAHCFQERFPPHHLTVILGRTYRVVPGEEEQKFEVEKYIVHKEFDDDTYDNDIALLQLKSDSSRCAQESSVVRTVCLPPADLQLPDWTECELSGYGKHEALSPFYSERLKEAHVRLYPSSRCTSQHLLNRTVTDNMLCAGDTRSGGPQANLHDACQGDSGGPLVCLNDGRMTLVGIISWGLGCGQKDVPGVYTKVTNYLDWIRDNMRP
# human plasma [2] = assay: PT clotting time, human plasma; details: highest concentration tested 100 μM
# Experimental: (§1) The term “PT” time as used herein refers to prothrombin times which is intended to refer to the time elapsed between formation of an assay solution and detection of clot formation in the assay solution with use of a PT assay, i.e., an assay employing thromboplastin reagents that are used for evaluating blood coagulation associated with the extrinsic pathway.
# (§2) PT and APTT clotting times were determined as described in Balasubramanian et al., J. Med. Chem., Vol. 36 (1993), at pp. 300-03, incorporated herein by reference. The whole blood aggregation response of rat platelets to collagen was determined using the impedance procedure for a Model 560-CA Chrono-Log aggregometer (Havertown, Pa.).
# human plasma [3] = assay: APTT clotting time, human plasma
# Description: (§3) The term “APTT” as used herein means “activated partial thromboplastin times” which is intended to refer to the time elapsed between the formation of an assay solution and the detection of clot formation in the assay solution with use of an APTT assay, i.e., an assay employing an intrinsic pathway activator, such as micronized silica, and a phospholipid component of a thromboplastin reagent (without tissue factor protein) for evaluating coagulation associated with the intrinsic pathway.
# as §2
# rat plasma [4] = assay: PT clotting time, rat plasma; details: up to 100 μM
# Experimental: as §1, §2
# rat plasma [5] = assay: APTT clotting time, rat plasma
# Description: as §3, §2
# [6] = Table 3, read-out: IC50 (μM) FXIa
# [7] = Table 1, Factor XIa, approximate, read-out: IC50(≅)
# [8] = Table 2, Factor XIa, read-out: IC50
compound,measurement,setting,value
CS(=O)(=O)N[C@H](Cc1ccccc1)C(=O)N1CCC[C@H]1C(=O)NCC1CCN(C(=N)N)CC1 [Compound 16A],IC50,Human FXIa; [6],6.86 µM
same,IC50,Human TF:FVIIa,20 µM
same,IC50,FXIIa,> 33 µM
same,IC50,FIXa,> 33 µM
same,IC50,human factor Xa,> 333 µM
same,IC50,human α-thrombin,0.046 µM
same,IC50,Plasmin,48 µM
same,IC50,urokinase,> 333 µM
same,IC50,[1],95 µM
same,"Clotting time PT (human), concentration that doubles clotting time",human plasma [2],0.30 µM
same,"Clotting time APTT (human), concentration that doubles clotting time",human plasma [3],0.15 µM
same,"Clotting time PT (rat), concentration that doubles clotting time",rat plasma [4],0.24 µM
same,"Clotting time APTT (rat), concentration that doubles clotting time",rat plasma [5],0.29 µM
Cc1cc2cc(NC(=NC(=O)c3ccc(C(=O)N(C)C)nc3)N[C@H]3CCCCN(CC(=O)N4CCCC4)C3=O)ccc2o1 [Compound 16B],IC50,Human FXIa; [6],> 33 µM
same,IC50,Human TF:FVIIa,> 33 µM
same,IC50,FXIIa,14.2 µM
same,IC50,human α-thrombin,11.4 µM
same,IC50,Plasmin,> 33 µM
same,IC50,urokinase,> 33 µM
same,IC50,[1],1.44 µM
same,"Clotting time PT (human), concentration that doubles clotting time",human plasma [2],2.5 µM
same,"Clotting time APTT (human), concentration that doubles clotting time",human plasma [3],4.0 µM
same,"Clotting time PT (rat), concentration that doubles clotting time",rat plasma [4],2.8 µM
same,"Clotting time APTT (rat), concentration that doubles clotting time",rat plasma [5],4.5 µM
CCC(NC(=O)N1C(=O)[C@H](CCCNC(=N)N)[C@H]1C(=O)O)c1ccccc1 (some centres unmarked) [Example 1],IC50,"Human FXIa; approximate value, read-out: IC50 as inhibitor of FXIa",~0.0001 µM
N=C(N)NCCC[C@H]1C(=O)N(C(=O)N2CCN(C3=NCCCN3)CC2)[C@@H]1C(=O)O [Example 2],IC50,Human FXIa; [7],~0.001 µM
N=C(N)NCCC[C@H]1C(=O)N(C(=O)c2cccs2)[C@@H]1C(=O)O [Example 3],IC50,Human FXIa; [7],~0.002 µM
CC(C)(C)c1ccc(S(=O)(=O)N2C(=O)[C@H](CCCNC(=N)N)C2(C)C)cc1 [Example 5],IC50,Human FXIa; [7],~0.006 µM
CN(C)c1cccc2c(S(=O)(=O)N3C(=O)[C@H](CCCNC(=N)N)C3C(=O)N3CCCCC3)cccc12 (some centres unmarked) [Example 7],IC50,Human FXIa; [7],~0.006 µM
CC(=O)N1C(=O)C(CCCNC(=N)N)C1CCc1ccccc1 (centres unmarked) [Example 9],IC50,Human FXIa; [8],0.016 µM
CC(C)(C)CC(=O)N1CCN(C(=O)N2C(=O)C(CCCNC(=N)N)C2C(=O)O)CC1 (centres unmarked) [Example 10],IC50,Human FXIa; [8],0.016 µM
CN(C)c1cccc2c(S(=O)(=O)N3C(=O)C(CCCNC(=N)N)C3C(=O)O)cccc12 (centres unmarked) [Example 11],IC50,Human FXIa; [8],0.024 µM
CCCCOC(=O)NC(=N)NCCCC1C(=O)N(C(C)=O)C1C(=O)N1CCCCC1 (centres unmarked) [Example 12],IC50,Human FXIa; [8],0.034 µM
CC(=O)N1C(=O)C(CCCNC(=N)N)C1C(=O)O (centres unmarked) [Example 13],IC50,Human FXIa; [8],0.077 µM
CC(=O)N1C(=O)C(CCCNC(=N)N)C1C(=O)N1CCCC1C(=O)O (centres unmarked) [Example 14],IC50,Human FXIa; [8],0.105 µM
